Assay results taken from PMC7139875, “4-Pyridinio-1,4-Dihydropyridines as Calcium Ion Transport Modulators: Antagonist, Agonist, and Dual Action” (Oxidative Medicine and Cellular Longevity, 2020).
Where two headings read alike, the source gives them in different places.

Columns and labels:
[1] = tested on: Ca2+ ion channel activity evoked by compound 4 in SH-SY5Y cells; assay: Inhibitor analysis of Ca2+ ion channel activity evoked by compound 4; assay type: cell-based, human
Protocol: The intracellular free Ca^2+ concentration [Ca^2+]i was measured in confluent monolayers of SH-SY5Y or […] cells with the Ca^2+-sensitive fluorescent indicator Fluo-4 NW according to the instruction (Fluo-4 NW Calcium Assay Kit, Thermo Fisher Scientific, cat. No. F36206) (as referenced by […] al.. Changes in [Ca^2+]i were measured from the fluorescence emitted at 516 nm due to alternate excitation at 494 nm using the microplate reader Tecan Infinite M1000 (Austria). Intracellular Ca^2+ concentration was calculated from a standard curve with known amounts of free Ca^2+ using the standard Ca^2+-EGTA buffering system (Calcium Calibration Buffer Kit, cat. No.C-3008, Thermo Fisher Scientific). […] The commercial calcium agonist compound Bay […] was used as the reference compound.

[2] = tested on: carbachol-dependent mobilization of intracellular Ca2+ in SH-SY5Y cells; set-up: method as in earlier work; details: SH-SY5Y cells stimulated by 100 nM carbachol; read-out: Antagonist effect IC50; cited from earlier work
[3] = tested on: [Ca2+]i in SH-SY5Y cells; assay: Ca2+ channel agonist activity, [Ca2+]i in Fluo-4 NW-loaded cells; assay type: cell-based, human; details: compound at 100 μM
Protocol: (§1) The intracellular free Ca^2+ concentration [Ca^2+]i was measured in confluent monolayers of SH-SY5Y or A7R5 cells with the Ca^2+-sensitive fluorescent indicator Fluo-4 NW according to the instruction (Fluo-4 NW Calcium Assay Kit, Thermo Fisher Scientific, cat. No. F36206) (as referenced by Vilskersts et al..
For the investigation of Ca^2+ channel agonist activity of the DHP compound, 4 […] NW loaded SH-SY5Y or A7R5 cells were stimulated by the addition of compound 4 at the concentration range from 4 to 100 μM. The well-known calcium channel agonist Bay K8644 was used as the positive control (at the concentration range from 4 to 100 μM).
(§2) Changes in [Ca^2+]i were measured from the fluorescence emitted at 516 nm due to alternate excitation at 494 nm using the microplate reader Tecan Infinite M1000 (Austria). Intracellular Ca^2+ concentration was calculated from a standard curve with known amounts of free Ca^2+ using the standard Ca^2+-EGTA buffering system (Calcium Calibration Buffer Kit, cat. No.C-3008, Thermo Fisher Scientific).
In some experiments, […] NW loaded cells were washed and placed in normal Ca^2+-free HEPES-buffered replacement medium. In Ca^2+ restoration experiments, Ca^2+ was initially absent from the medium and was restored to 1 mM after 870 s of stimulation with compound 4.

[4] = tested on: isolated rat aortic ring; assay: Isolated rat aortic ring model, KCl precontracted denuded rings; details: KCl precontracted denuded rat aortic rings; read-out: Calcium channel blocking activity EC50
Protocol: The experimental animal (one rat) was anesthetized with pentobarbital sodium (60 mg/kg i.p.). Once deep anesthesia was achieved, the thoracic aorta was dissected, placed in ice cold Krebs-Henseleit (K-H) buffer (content in mM: NaCl 118, KCl 4.7, CaCl2 2.5, MgCl2 1.64, NaHCO3 24.88, KH2PO4 1.18, glucose 10.0, sodium pyruvate 5.0, and disodium salt of ethylenediaminetetraacetic acid 0.05), cleaned from connective and fatty tissues, and cut into 3-4 mm long rings. Endothelium was mechanically scraped off with the tips of forceps, and the aortic rings were mounted between two stainless steel hooks attached to an isometric force transducer in 20 ml organ bath in K-H buffer bubbled with 95% O2 and 5% CO2 at 37°C (one separate aortic ring was used for each tested compound). Passive tension was adjusted to approximately 40 mN over a 60 min equilibration period. The experiment was started after the equilibration period by adding KCl solution to obtain a concentration of 50 mM. Addition of KCl induced contraction of the aortic rings, and a plateau of contraction was reached about […]. Thereafter, the tested compound solutions in dimethyl sulfoxide were added to the aortic rings in order to obtain the final concentrations in the range of 10^−10-10^−5 M. Changes in the tension were recorded using LabChart Pro software from ADInstruments (https://www.adinstruments.com/products/labchart/labchart-for-research). The EC50 values of the tested compounds were calculated using Prism 3.0 software from GraphPad (GraphPad Software Inc., USA) (https://www.graphpad.com/scientific-software/prism/). The experimental procedures involving experimental animals were carried out in accordance with the guidelines of the European Community, LR local laws and policies, and were approved by the Latvian Animal Protection Ethical Committee, the Food and Veterinary Service, Riga, Latvia.

[5] = tested on: carbachol-dependent mobilization of intracellular Ca2+ in SH-SY5Y cells; assay: Antagonist effect on carbachol-evoked intracellular Ca2+ mobilization (Fluo-4 NW); assay type: cell-based, human; details: Homo sapiens; SH-SY5Y cells, 100 nM carbachol, 15 min preincubation; read-out: Antagonist activity (IC50)
Protocol: as §1
The investigation of Ca^2+ channel blocking activity of DHP derivatives was based on the effect of DHP on carbachol evoked intracellular Ca^2+ mobilization in human neuroblastoma cells.
The cells were preincubated in the dark for 15 minutes with the tested compounds at concentrations ranging from 0.16 to 100 μM. The application of carbachol (100 nM) to […] NW loaded SH-SY5Y cells stimulated a classic “biphasic” response. The well-known 3rd generation calcium channel inhibitor amlodipine, which is also claimed to act as antioxidant and free radical scavenger, was used as the positive control (at the concentration range from 20 to 100 μM).
as §2
The IC50 values for the tested compounds were calculated using GraphPad Prism 4.0 software.

IC50 ([1]; Homo sapiens, 100 μM compound 4, SH-SY5Y cells, read-out: IC50 for inhibition of Ca2+ ion channel activity evoked by compound 4): 100 µM | EC50 [4]: 14.3 ± 0.3 nM | IC50 [5]: 11 ± 2 µM
Structure (SMILES): CCOC(=O)C1=C(COCCN)NC(C)=C(C(=O)OC)C1c1ccccc1Cl (stereo not drawn) [Amlodipine]
inhibition at 100 µM ([1]; Homo sapiens, SH-SY5Y, inhibitor 100 μM, 15 min preincubation, 100 μM compound 4): 50 ± 11% | Inhibition (%) of Ca2+ ion channel activity evoked by compound 4 ([1]; inhibitor 4 μM, 100 μM compound 4): 0 ± 6% | Inhibition (%) of Ca2+ ion channel activity evoked by compound 4 ([1]; inhibitor 20 μM, 100 μM compound 4): 10 ± 11% | Phase of the compound 4 response that is inhibited ([1]; inhibitor 100 μM, 100 μM compound 4): inhibited the first phase of the response | IC50 [2]: 13 µM | Agonist activity (RFU, 100 μM) [3]: No effect
